# Like-named read-outs stand apart in the source and are kept apart here.
# Assays:
# [1] = target: T1, Isoprenylcysteine carboxyl methyltransferase (Icmt) (Homo sapiens, UniProt O60725); assay: Icmt inhibition, scintillation proximity assay with BFC and [3H]SAM; type: biochemical; conditions: for IC50: read-out: IC50 Icmt
# T1 construct: made in house; host or cells: Sf9 (Spodoptera frugiperda) insect cells; membrane preparation provided by Prof PJ Casey (Duke University / Duke-NUS)
# Protocol: Isoprenylcysteine carboxyl methyltransferase (Icmt) was provided by Prof PJ Casey of Duke University, NC. S-Adenosylmethionine (SAM), magnesium chloride Hexahydrate (MgCl2), tartrazine, 4-(2-hydroxyethyl)-1-piperazineethanesulfonic acid (HEPES), dimethyl sulfoxide (DMSO) and dithiotreitol (DTT) were purchased from Sigma (Mo, USA). [^3H] S-Adenosylmethionine, [^3H] Biotin and Streptavidin PVT SPA Beads were purchased from PerkinElmer (Waltham, Mass.). Assays were performed in black small volume 384 well microtitre plates from PerkinElmer.
# Stocks of Icmt membrane protein (30 μg/μL) stored at −80° C. were thawed at 37° C. and placed on ice. The Icmt membrane protein was diluted in assay buffer (70 mM HEPES, 100 mM NaCl, 5 mM Mg Cl2 and 3 mM DTT, pH 7.5) to a 0.03 μg/μL working concentration and added to the wells of a microtitre plate (5 μl/well). To each wells 20 μl of the reaction buffer was added. The reaction was initiated with the addition of 5 μL of substrate solution containing BFC (6 μM), SAM (3 μM) and 30 μCi/mL [^3H] SAM (all of these reagents were stored at −20° C., SAM reagents thawed on ice, BFC thawed at RT). The plate was incubated at 37° C. for 30 minutes. The reaction was stopped with the addition of 15 μL of stop solution containing SAM (150 μM) and Streptavidin SPA beads (20 mg/mL). Following overnight incubation at ambient temperature radioactivity was counted on a Microbeta Trilux™ (Perkin Elmer, Turku, Finland).
# Sf9 (Spodoptera frugiperda ovarian) membranes containing recombinant Icmt were provided by Prof PJ Casey (Duke University, NC and Duke-NUS Graduate Medical School). S-Adenosylmethionine (SAM), magnesium chloride hexahydrate, tartrazine, 4-(2-hydroxyethyl)-1-piperazineethanesulfonic acid (HEPES) and dithiotreitol (DTT) were purchased from Sigma (Mo, USA). [^3H] S-Adenosylmethionine, [^3H] biotin and streptavidin PVT SPA Beads were purchased from PerkinElmer (Waltham, Mass.). Biotinylated farnesylcysteine was synthesized as described in an earlier report. Assays were performed in black 384-well microtitre plates from PerkinElmer.
# A vial of Icmt membrane protein (30 μg/μL) stored at −80° C. was thawed at 37° C. and placed on ice. The protein was diluted in assay buffer (70 mM HEPES, 100 mM NaCl, 5 mM MgCl2, 3 mM DTT, pH 7.5) to 0.03 μg/μL and aliquots were added to each well (5 μL/well), followed by 20 μL of the assay buffer. The reaction was initiated by adding 5 μL of a solution containing biotinylated BFC (6 μM), SAM (3 μM) and 30 μCi/mL [^3H] SAM. These reagents were stored at −20° C. and thawed on ice (SAM, [^3H] SAM) or at room temperature (BFC). The plate was incubated at 37° C. for 30 minutes after which the reaction was quenched by adding 15 μL of a solution comprising SAM (150 μM) and streptavidin SPA beads (20 mg/mL). After overnight incubation at ambient temperature, radioactivity was counted (Microbeta Trilux™, Perkin Elmer, Turku, Finland). The degree of inhibition was assessed from the radioactivity obtained in presence of test compound compared to that obtained from the control sample […]. Two independent determinations were made for each test compound.
# [2] = test system: PC3 Prostrate cancer cells; assay: Antiproliferative activity / cell viability (MTS, 72 h); type: cell-based, human; conditions: Homo sapiens
# Protocol: (§1) The relative number of the live cells was determined using the CellTiter® 96 AQueous One Solution Cell Proliferation Assay (Promega). Determinations were made in duplicates or triplicates.
# [3] = test system: Human hepatocellular carcinoma HepG2 cells; assay: Cell viability (MTS, 72 h); type: cell-based
# Protocol: Cell viability was determined from the expression:
# The plot was constrained to ≧0 and ≦100%.
# Human hepatocellular carcinoma HepG2 and human pancreatic cancer MIA PACA II cells were obtained from ATCC (Rockville, Md.). They were grown in DMEM (high glucose, Invitrogen) supplemented with 10% FBS, 50 μg/mL penicillin and 50 μg/mL streptomycin, 37° C., 5% CO2 until they reached 80-90% confluency, after which they were subcultured. Passage numbers were kept within 7-14 passages for both cell types.
# [4] = Aggregation tendency by dynamic light scattering (DLS); type: physicochemical; conditions: for DLS count rate (kcps): 1% DMSO, potassium phosphate buffer 5 mM pH 7.4
# Protocol: Stock solutions (10 mM) of test compounds prepared in DMSO, diluted to 1 mM with DMSO and then serially diluted with potassium phosphate buffer (5 mM, pH 7.4, prefiltered before use) to give final concentrations of 1 μM and 10 μM. Final concentration of DMSO was 1% v/v. Measurements were carried out on the Malvern Instrument Zetasizer Nano ZS system equipped with a 4 mW He—Ne laser at 633 nm and detector angle of 90°. Three or more determinations of derived count rates (kilocounts per second, kcps) were obtained from each concentration of test compound, using two separately prepared stock solutions. Data collection was carried out using the software supplied with the instrument. Results are represented as mean±standard deviation. The positive control was benzyl benzoate (250 μM) which gave a count rate of 1180 kcps (±35). The vehicle (phosphate buffer, 1% DMSO) gave a reading of 14.9±0.4.
# [5] = test system: Balb/c mice
# Protocol: Animals were given free access to water and standard feed. […] The test compound was administered intraperitoneally using a 23G gauge needle to the animal in a volume of vehicle that was tagged to the body weight, namely 0.2 mL for 20 g animal and so on. The vehicle was formulated from ethanol, PEG 400 (Sigma Aldrich) and 5% dextrose (Sigma Aldrich) in the ratio 1:6:3. The test compound was first dissolved in ethanol, PEG400 was added and the solution was vortexed, followed by 5% dextrose and further vortexing. The solutions were freshly prepared before administration.
# [6] = test system: MDA-MB-231 human breast cells; assay: Antiproliferative activity / cell viability (MTS, 72 h); conditions: Homo sapiens
# Protocol: as §1
# Human breast cancer MDA-MB231, liver cancer HepG2 and lung fibroblast cells were purchased from ATCC (Rockville, Md.). MDA-MB231 cells and IMR-90 cells were grown in DMEM (Sigma Aldrich, Singapore) and EMEM (Sigma Aldrich, Singapore) respectively at 37° C., 5% CO2. DMEM was supplemented with 10% fetal bovine serum (Invitrogen, heat treated at 65 deg C., 30 min), 50 units/L penicillin-G and 50 μg/mL streptomycin. EMEM was supplemented with 10% fetal bovine serum (heat treated as above), 100 mg/L penicillin-G and 100 μg/mL streptomycin.
# Cell viability was assessed using CellTitre 96® Aqueous One Solution (Promega, Madison, Wis.) containing the tetrazolium salt 3-(4,5-dimethylthiazol-2-yl)-5-(3-carboxymethoxyphenyl)-2-(4-sulfophenyl)-2H-tetrazolium (MTS). […] Final concentration of DMSO per well was maintained at 0.5% v/v. […] Cell viability was determined from the expression:
# The plot was constrained to ≧0 and ≦100%. At least 3 independent determinations of IC50 were made using two different stock solutions of test compound.
# [7] = Table 3, mean of two or more determinations (SD)
# [8] = PC-3M, Table 3, 72 h, mean (SD), read-out: IC50 PC3
# [9] = Table 6, from earlier table, read-out: IC50 (μM) PC3
# [10] = HepG2, Table 6, mean (SD), read-out: IC50 (μM) HepG2
# [11] = HepG2, further testing, 72 h, mean (SD), read-out: IC50 HepG2
# [12] = HepG2, read-out: in vitro IC50 (horizontal line in FIGS. 14 and 15), cell line not stated
# [13] = female, Balb/c, mouse, in vivo, ip, 24 h
# [14] = MDA-MB-231, 72 h, read-out: IC50 MDA-MB-231 (μM)
# [15] = MDA-MB-231, 72 h, read-out: IC50MDA-MB-231 (μM)
# [16] = MDA-MB-231, read-out: IC50 (μM) MDA MB 231
# T1 sequence (O60725 whole entry, species assumed): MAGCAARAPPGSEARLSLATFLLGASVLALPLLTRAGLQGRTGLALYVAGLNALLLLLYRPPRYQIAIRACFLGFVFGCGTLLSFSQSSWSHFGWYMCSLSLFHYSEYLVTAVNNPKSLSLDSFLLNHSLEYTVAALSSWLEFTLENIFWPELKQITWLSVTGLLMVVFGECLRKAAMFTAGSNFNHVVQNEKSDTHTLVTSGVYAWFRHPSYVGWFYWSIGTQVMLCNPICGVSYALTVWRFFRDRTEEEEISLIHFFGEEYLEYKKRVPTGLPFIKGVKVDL
SMILES,"IC50 [1, 7] [nM]","IC50 ([1]; further testing, mean (SD)) [nM]","IC50 [2, 8] [µM]","IC50 [2, 9] [µM]","IC50 [3, 10] [µM]","IC50 [3, 11] [µM]","IC50 [3, 12] [µM]",DLS count rate (kcps) ([4]; 1 μM),DLS count rate (kcps) ([4]; 10 μM),fold increase in light scattering ([4]; concentration increased from 1 μM to 10 μM),"tolerability [5, 13]","apparent maximal tolerated dose ([5]; mice, IP) [mg/kg]","IC50 [6, 14] [µM]","IC50 [6, 15] [µM]","IC50 [6, 16] [µM]",fold higher IC50 Icmt than cysmethynil ([1]; ratio of IC50 Icmt),"maximal tolerated dose [5, 13]","tolerability ([5]; mouse, in vivo, ip)"
"CCCCCCCCn1cc(CN(CC)CC)c2cc(-c3cnc(N)nc3)ccc21 [Compound 8-12, 5-(3-Diethylaminomethyl-1-octyl-1H-indol-5-yl)-pyrimidin-2-ylamine]",780,860,2.55,2.55,1.65,1.65,1.7,24.5,53.3,2,"well tolerated at 10, 20 and 50 mg/kg",100,2.48,2.63,2.63,,,
"CCCCCCCCn1c2c(c3cc(-c4cnc(N)nc4)ccc31)CN(C)CC2 [Compound 305, 8-(2′-amino-pyrimidin-5′-yl)-2-methyl-5-n-octyl-1,2,3,4-tetrahydropyrido[4,3-b]indole]",3300,,4.31,,,1.73,,21.0,29.0,,,,5.65,4.61,,about 2,,
"CCCCCCCCn1cc(CC(N)=O)c2cc(-c3cccc(C)c3)ccc21 [Cysmethynil, 2-[5-(3-methylphenyl)-1-octyl-1H-indolo-3-yl]acetamide, reference compound]",1800,1900,24.8,25.2,21.8,21.8,22,22.6,164.0,,,,27.4,26.8,27.4,,exceeded 100 kg/kg,well tolerated at all doses

# From patent publication US9422238B2, “ICMT inhibitors” (National University of Singapore, priority 2012, dated 2016)
